Laboratory results: the kinase profiling compilation of Christmann-Franck et al. (2016)
Values joined by “and” are separate entries in the source; they are usually repeats but may differ in a detail not shown here. Equal entries are not always repeated.

Columns and labels:
Experiment in all cases: radiometric filter-binding kinase assay, Kinase HotSpot
Settings in all cases: compound 0.5 µM; ATP 10 µM
MAP2K2 (human) = MAP2K2 (human) (UniProt P36507)
MAPK3 (human) = MAPK3 (human) (UniProt P27361)
MAPK3 (human), sequence (P27361 whole entry, looked up): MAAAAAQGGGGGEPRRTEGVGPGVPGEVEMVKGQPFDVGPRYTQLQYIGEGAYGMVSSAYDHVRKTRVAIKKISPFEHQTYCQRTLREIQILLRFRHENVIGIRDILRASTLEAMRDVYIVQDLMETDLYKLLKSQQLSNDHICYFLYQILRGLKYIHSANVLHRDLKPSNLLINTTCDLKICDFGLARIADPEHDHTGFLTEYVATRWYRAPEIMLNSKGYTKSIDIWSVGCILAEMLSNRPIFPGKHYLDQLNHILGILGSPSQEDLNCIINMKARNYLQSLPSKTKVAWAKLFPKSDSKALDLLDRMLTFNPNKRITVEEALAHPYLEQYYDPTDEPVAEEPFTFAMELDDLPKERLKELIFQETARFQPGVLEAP

TEK (human) = TEK (human) (UniProt Q02763)
TEK (human), sequence (Q02763 whole entry, looked up): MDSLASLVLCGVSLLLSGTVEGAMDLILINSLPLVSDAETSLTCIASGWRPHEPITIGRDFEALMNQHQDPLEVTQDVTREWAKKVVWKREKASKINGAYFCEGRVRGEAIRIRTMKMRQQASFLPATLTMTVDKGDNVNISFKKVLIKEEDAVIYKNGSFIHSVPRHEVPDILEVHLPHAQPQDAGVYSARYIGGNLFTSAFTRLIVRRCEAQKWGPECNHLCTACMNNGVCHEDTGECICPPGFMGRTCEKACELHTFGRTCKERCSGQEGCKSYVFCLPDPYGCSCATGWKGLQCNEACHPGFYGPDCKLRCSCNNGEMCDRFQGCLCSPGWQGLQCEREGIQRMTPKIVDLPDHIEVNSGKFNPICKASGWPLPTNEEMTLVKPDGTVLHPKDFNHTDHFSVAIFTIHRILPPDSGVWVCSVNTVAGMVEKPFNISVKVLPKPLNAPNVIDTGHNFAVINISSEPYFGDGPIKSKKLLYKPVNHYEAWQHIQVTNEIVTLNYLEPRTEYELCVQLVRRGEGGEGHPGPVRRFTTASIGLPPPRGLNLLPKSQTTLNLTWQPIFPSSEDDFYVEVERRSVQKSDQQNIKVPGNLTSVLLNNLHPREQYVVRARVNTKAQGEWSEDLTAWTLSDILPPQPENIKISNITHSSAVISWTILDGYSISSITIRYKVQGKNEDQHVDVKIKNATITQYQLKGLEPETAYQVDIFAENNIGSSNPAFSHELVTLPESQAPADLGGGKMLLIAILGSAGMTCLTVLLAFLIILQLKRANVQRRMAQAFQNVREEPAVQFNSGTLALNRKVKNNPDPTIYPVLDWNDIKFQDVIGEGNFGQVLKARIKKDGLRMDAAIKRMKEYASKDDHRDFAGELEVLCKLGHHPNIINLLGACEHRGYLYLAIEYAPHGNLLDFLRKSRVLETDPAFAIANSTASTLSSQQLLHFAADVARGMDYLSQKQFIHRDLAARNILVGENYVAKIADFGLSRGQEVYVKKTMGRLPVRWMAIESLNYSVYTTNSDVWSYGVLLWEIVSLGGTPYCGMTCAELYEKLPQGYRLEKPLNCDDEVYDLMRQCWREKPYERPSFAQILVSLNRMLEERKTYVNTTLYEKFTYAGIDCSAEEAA

JAK3 JH1 JH2 (human) = JAK3 JH1 JH2 (human) (UniProt P52333)
LTK (human) = LTK (human) (UniProt P29376)
ROCK1 (human) = ROCK1 (human) (UniProt Q13464)
MAPK8 (human) = MAPK8 (human) (UniProt P45983)
RPS6KA2 KD1 KD2 (human) = RPS6KA2 KD1 KD2 (human) (UniProt Q15349)
GSK3A (human) = GSK3A (human) (UniProt P49840)
CAMK4 (human) = CAMK4 (human) (UniProt Q16566)
CAMK2B (human) = CAMK2B (human) (UniProt Q13554)
CAMK1G (human) = CAMK1G (human) (UniProt Q96NX5)
NUAK2 (human) = NUAK2 (human) (UniProt Q9H093)
NTRK3 (human) = NTRK3 (human) (UniProt Q16288)
PRKG1 (human) = PRKG1 (human) (UniProt Q13976)
WEE1 (human) = WEE1 (human) (UniProt P30291)
PAK7 (human) = PAK7 (human) (UniProt Q9P286)
KDR (human) = KDR (human) (UniProt P35968)
MAPKAPK3 (human) = MAPKAPK3 (human) (UniProt Q16644)
CAMK2A (human) = CAMK2A (human) (UniProt Q9UQM7)
PRKACA (human) = PRKACA (human) (UniProt P17612)
SLK (human) = SLK (human) (UniProt Q9H2G2)
MAPK12 (human) = MAPK12 (human) (UniProt P53778)
TNK2 (human) = TNK2 (human) (UniProt Q07912)
[1] = biological target: TYK2 JH1 catalytic (human) (UniProt P29597)
STK33 (human) = STK33 (human) (UniProt Q9BYT3)
DAPK3 (human) = DAPK3 (human) (UniProt O43293)
NTRK1 (human) = NTRK1 (human) (UniProt P04629)
ACVR1B (human) = ACVR1B (human) (UniProt P36896)
MST4 (human) = MST4 (human) (UniProt Q9P289)
MST4 (human), sequence (Q9P289 whole entry, looked up): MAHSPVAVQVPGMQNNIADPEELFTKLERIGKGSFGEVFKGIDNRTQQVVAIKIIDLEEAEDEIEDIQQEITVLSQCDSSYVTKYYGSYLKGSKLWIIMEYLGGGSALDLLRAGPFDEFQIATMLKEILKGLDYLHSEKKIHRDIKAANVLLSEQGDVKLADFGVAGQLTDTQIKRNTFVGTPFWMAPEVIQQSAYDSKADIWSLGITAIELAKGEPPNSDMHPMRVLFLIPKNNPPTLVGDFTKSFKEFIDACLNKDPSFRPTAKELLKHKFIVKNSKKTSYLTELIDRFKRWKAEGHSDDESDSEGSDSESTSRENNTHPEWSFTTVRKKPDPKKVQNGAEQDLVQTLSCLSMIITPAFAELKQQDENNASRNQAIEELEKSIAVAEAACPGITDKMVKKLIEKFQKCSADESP

GSK3B (human) = GSK3B (human) (UniProt P49841)
PRKCB2 (human) = PRKCB2 (human) (UniProt P05771)
SRPK1 (human) = SRPK1 (human) (UniProt Q96SB4)
MARK3 (human) = MARK3 (human) (UniProt P27448)
PTK2 (human) = PTK2 (human) (UniProt Q05397)
TSSK1B (human) = TSSK1B (human) (UniProt Q9BXA7)
AXL (human) = AXL (human) (UniProt P30530)
AXL (human), sequence (P30530 whole entry, looked up): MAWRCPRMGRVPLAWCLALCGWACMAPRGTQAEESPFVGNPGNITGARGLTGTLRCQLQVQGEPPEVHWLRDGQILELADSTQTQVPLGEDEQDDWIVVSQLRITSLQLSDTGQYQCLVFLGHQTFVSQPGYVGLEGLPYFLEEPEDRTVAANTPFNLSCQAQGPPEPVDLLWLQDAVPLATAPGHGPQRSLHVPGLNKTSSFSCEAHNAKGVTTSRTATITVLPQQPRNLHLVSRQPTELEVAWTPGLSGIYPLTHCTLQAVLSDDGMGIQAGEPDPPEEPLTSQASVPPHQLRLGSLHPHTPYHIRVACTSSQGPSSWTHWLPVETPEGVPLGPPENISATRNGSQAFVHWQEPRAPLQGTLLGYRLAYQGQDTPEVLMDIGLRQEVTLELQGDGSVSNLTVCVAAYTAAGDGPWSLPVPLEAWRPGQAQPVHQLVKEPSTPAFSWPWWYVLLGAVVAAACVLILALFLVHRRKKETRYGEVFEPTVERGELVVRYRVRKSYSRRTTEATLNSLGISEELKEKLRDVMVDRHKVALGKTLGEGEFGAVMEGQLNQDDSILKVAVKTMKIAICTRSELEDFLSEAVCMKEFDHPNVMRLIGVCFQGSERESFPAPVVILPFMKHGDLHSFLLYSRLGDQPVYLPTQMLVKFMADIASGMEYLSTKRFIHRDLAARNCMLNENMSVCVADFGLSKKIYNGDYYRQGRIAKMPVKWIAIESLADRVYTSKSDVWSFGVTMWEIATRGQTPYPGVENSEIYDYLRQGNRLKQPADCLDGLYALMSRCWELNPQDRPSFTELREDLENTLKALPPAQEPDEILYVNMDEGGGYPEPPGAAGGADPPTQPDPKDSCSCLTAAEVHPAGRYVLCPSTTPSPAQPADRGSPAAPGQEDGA

NEK4 (human) = NEK4 (human) (UniProt P51957)
PLK3 (human) = PLK3 (human) (UniProt Q9H4B4)
CSNK2A1 (human) = CSNK2A1 (human) (UniProt P68400)
CDC42BPB (human) = CDC42BPB (human) (UniProt Q9Y5S2)
CDC42BPB (human), sequence (Q9Y5S2 whole entry, looked up): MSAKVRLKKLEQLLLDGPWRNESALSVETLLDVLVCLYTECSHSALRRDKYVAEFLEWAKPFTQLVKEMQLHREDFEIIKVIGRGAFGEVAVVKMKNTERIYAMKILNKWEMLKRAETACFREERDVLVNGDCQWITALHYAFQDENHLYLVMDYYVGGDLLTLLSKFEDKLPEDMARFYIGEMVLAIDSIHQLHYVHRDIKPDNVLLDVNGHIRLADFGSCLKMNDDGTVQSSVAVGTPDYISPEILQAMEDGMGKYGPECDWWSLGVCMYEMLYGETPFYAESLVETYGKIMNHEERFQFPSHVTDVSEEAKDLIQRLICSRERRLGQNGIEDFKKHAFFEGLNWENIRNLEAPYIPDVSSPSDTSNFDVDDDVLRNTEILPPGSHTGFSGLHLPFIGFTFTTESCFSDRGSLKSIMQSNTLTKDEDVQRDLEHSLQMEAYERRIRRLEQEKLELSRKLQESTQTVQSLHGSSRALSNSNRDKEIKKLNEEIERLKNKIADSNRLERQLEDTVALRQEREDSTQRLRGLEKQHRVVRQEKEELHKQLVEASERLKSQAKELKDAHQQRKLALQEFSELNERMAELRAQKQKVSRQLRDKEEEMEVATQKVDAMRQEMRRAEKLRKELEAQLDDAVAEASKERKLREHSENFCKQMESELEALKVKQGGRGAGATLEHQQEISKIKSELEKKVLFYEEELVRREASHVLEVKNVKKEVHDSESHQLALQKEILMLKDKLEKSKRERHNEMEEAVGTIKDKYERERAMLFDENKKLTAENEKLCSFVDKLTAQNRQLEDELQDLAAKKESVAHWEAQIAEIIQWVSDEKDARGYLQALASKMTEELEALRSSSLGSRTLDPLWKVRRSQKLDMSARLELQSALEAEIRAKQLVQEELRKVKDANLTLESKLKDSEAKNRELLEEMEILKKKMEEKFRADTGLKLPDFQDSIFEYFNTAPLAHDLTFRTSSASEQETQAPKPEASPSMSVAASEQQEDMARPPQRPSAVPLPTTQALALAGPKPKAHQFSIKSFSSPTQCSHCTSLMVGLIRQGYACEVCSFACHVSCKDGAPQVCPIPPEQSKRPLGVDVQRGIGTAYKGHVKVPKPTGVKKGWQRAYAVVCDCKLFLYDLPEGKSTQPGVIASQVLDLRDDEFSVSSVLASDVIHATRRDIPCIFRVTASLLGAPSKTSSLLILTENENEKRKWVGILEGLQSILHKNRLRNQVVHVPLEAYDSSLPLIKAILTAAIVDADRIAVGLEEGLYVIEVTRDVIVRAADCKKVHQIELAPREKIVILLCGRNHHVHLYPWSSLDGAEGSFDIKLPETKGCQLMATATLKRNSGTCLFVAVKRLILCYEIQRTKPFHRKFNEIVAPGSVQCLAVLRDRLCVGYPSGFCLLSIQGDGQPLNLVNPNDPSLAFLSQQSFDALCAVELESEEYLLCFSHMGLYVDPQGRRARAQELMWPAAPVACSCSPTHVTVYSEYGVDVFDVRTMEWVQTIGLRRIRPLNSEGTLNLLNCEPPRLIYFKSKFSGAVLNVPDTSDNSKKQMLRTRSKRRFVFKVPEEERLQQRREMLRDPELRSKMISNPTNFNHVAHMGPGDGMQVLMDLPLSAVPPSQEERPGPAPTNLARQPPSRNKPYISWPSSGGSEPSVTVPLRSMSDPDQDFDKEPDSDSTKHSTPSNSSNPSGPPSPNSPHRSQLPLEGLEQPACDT

AKT1 (human) = AKT1 (human) (UniProt P31749)
AKT1 (human), sequence (P31749 whole entry, looked up): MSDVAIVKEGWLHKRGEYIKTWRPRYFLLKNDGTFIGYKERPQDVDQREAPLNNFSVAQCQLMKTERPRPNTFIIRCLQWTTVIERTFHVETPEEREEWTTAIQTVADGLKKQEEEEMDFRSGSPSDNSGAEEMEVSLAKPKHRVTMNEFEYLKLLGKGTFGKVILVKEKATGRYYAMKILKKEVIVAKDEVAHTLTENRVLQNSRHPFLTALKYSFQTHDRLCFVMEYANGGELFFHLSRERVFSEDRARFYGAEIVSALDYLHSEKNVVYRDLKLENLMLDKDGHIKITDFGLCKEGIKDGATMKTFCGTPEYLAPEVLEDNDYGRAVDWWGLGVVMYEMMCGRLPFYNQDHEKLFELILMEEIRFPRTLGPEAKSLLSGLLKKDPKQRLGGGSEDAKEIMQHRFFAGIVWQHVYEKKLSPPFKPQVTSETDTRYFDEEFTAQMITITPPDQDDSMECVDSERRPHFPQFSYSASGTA

NC(=O)c1cccc(-c2cc(Nc3ccc(OC(F)(F)F)cc3)ncn2)c1 showed a residual activity (MAP2K2 (human)) of 92.5%, a residual activity (MAPK3 (human)) of 94.5% and a residual activity (TEK (human)) of 94.2%. For the same compound, the residual activity (JAK3 JH1 JH2 (human)) was 101%, the residual activity (LTK (human)) was 111% and the residual activity (ROCK1 (human)) was 96.8%. For the same compound, the residual activity (MAPK8 (human)) was 90.3%, the residual activity (RPS6KA2 KD1 KD2 (human)) was 96.2% and the residual activity (GSK3A (human)) was 93.9%. The residual activity (CAMK4 (human)) was 90.5%, the residual activity (CAMK2B (human)) was 100% and the residual activity (CAMK1G (human)) was 98.1%. For the same compound, the residual activity (NUAK2 (human)) was 87.8%, the residual activity (NTRK3 (human)) was 92.7% and the residual activity (PRKG1 (human)) was 92.9% and 98.4%. It also gave a residual activity (WEE1 (human)) of 98.9%, a residual activity (PAK7 (human)) of 88.1% and a residual activity (KDR (human)) of 99.8%. For the same compound, the residual activity (MAPKAPK3 (human)) was 98%, the residual activity (CAMK2A (human)) was 102% and the residual activity (PRKACA (human)) was 94.2%. For the same compound, the residual activity (SLK (human)) was 98.2%, the residual activity (MAPK12 (human)) was 111% and the residual activity (TNK2 (human)) was 98.5%. The residual activity [1] was 82.7%, the residual activity (STK33 (human)) was 92.1% and the residual activity (DAPK3 (human)) was 99.8%. For the same compound, the residual activity (NTRK1 (human)) was 96.6%, the residual activity (ACVR1B (human)) was 103% and the residual activity (MST4 (human)) was 94.7%. For the same compound, the residual activity (GSK3B (human)) was 110%, the residual activity (PRKCB2 (human)) was 122% and the residual activity (SRPK1 (human)) was 98%. It also gave a residual activity (MARK3 (human)) of 100%, a residual activity (PTK2 (human)) of 100% and a residual activity (TSSK1B (human)) of 95.4%. The residual activity (AXL (human)) was 101%, the residual activity (NEK4 (human)) was 98% and the residual activity (PLK3 (human)) was 96.9%. It also gave a residual activity (CSNK2A1 (human)) of 94.6% and a residual activity (CDC42BPB (human)) of 93.2%.
CN(C)c1ccc(/C=C2\C(=O)Nc3ccccc32)cc1 was tested, and the residual activity (MAP2K2 (human)) was 99.4%, the residual activity (MAPK3 (human)) was 102% and the residual activity (TEK (human)) was 102%. The residual activity (JAK3 JH1 JH2 (human)) was 113%, the residual activity (LTK (human)) was 96.8% and the residual activity (ROCK1 (human)) was 98.3%. It also gave a residual activity (MAPK8 (human)) of 103%, a residual activity (RPS6KA2 KD1 KD2 (human)) of 89.1% and a residual activity (GSK3A (human)) of 104%. It also gave a residual activity (CAMK4 (human)) of 97.8%, a residual activity (CAMK2B (human)) of 108% and a residual activity (CAMK1G (human)) of 99.9%. The residual activity (AKT1 (human)) was 101%, the residual activity (NUAK2 (human)) was 94.3% and the residual activity (NTRK3 (human)) was 36.3%. For the same compound, the residual activity (PRKG1 (human)) was 86.9% and 99.7%, the residual activity (WEE1 (human)) was 88.6% and the residual activity (PAK7 (human)) was 101%. For the same compound, the residual activity (KDR (human)) was 94.3%, the residual activity (MAPKAPK3 (human)) was 100% and the residual activity (CAMK2A (human)) was 106%. The residual activity (PRKACA (human)) was 104%, the residual activity (SLK (human)) was 103% and the residual activity (MAPK12 (human)) was 102%. It also gave a residual activity (TNK2 (human)) of 101%, a residual activity [1] of 103% and a residual activity (STK33 (human)) of 99.8%. For the same compound, the residual activity (DAPK3 (human)) was 101%, the residual activity (NTRK1 (human)) was 96.6% and the residual activity (ACVR1B (human)) was 93.4%. For the same compound, the residual activity (MST4 (human)) was 90.9%, the residual activity (GSK3B (human)) was 111% and the residual activity (PRKCB2 (human)) was 103%. It also gave a residual activity (SRPK1 (human)) of 95.4%, a residual activity (MARK3 (human)) of 101% and a residual activity (PTK2 (human)) of 104%. The residual activity (TSSK1B (human)) was 102%, the residual activity (AXL (human)) was 93.8% and the residual activity (NEK4 (human)) was 102%. The residual activity (PLK3 (human)) was 97%, the residual activity (CSNK2A1 (human)) was 89.7% and the residual activity (CDC42BPB (human)) was 89.5%.
For O=C1C(Cl)=C(N2C(=O)CCC2=O)C(=O)c2ccccc21, the residual activity (MAP2K2 (human)) was 106%, the residual activity (MAPK3 (human)) was 99.3% and the residual activity (TEK (human)) was 96.7%. It also gave a residual activity (JAK3 JH1 JH2 (human)) of 101%, a residual activity (LTK (human)) of 100% and a residual activity (ROCK1 (human)) of 106%. For the same compound, the residual activity (MAPK8 (human)) was 122%, the residual activity (RPS6KA2 KD1 KD2 (human)) was 104% and the residual activity (GSK3A (human)) was 99.8%. For the same compound, the residual activity (CAMK2B (human)) was 106%, the residual activity (CAMK1G (human)) was 98.2% and the residual activity (AKT1 (human)) was 103%. For the same compound, the residual activity (NUAK2 (human)) was 86.7%, the residual activity (NTRK3 (human)) was 98.6% and the residual activity (PRKG1 (human)) was 104% and 97.8%. The residual activity (WEE1 (human)) was 93%, the residual activity (PAK7 (human)) was 108% and the residual activity (KDR (human)) was 88.3%. The residual activity (MAPKAPK3 (human)) was 103%, the residual activity (CAMK2A (human)) was 89.6% and the residual activity (PRKACA (human)) was 88.8%. The residual activity (SLK (human)) was 104%, the residual activity (MAPK12 (human)) was 100% and the residual activity (TNK2 (human)) was 91.5%. The residual activity [1] was 102%, the residual activity (STK33 (human)) was 91.5% and the residual activity (DAPK3 (human)) was 114%. For the same compound, the residual activity (NTRK1 (human)) was 97%, the residual activity (ACVR1B (human)) was 106% and the residual activity (MST4 (human)) was 98.3%. For the same compound, the residual activity (GSK3B (human)) was 100%, the residual activity (PRKCB2 (human)) was 108% and the residual activity (SRPK1 (human)) was 103%. The residual activity (MARK3 (human)) was 87.8%, the residual activity (PTK2 (human)) was 98.4% and the residual activity (TSSK1B (human)) was 104%. It also gave a residual activity (NEK4 (human)) of 99.6%, a residual activity (PLK3 (human)) of 96.6% and a residual activity (CSNK2A1 (human)) of 99.3%. It also gave a residual activity (CDC42BPB (human)) of 98.6%.
CN(C)S(=O)(=O)c1ccc2c(c1)/C(=C/c1cc3c([nH]1)CCCC3)C(=O)N2 showed a residual activity (MAP2K2 (human)) of 104%, a residual activity (MAPK3 (human)) of 102% and a residual activity (TEK (human)) of 95.4%. For the same compound, the residual activity (JAK3 JH1 JH2 (human)) was 64.8%, the residual activity (LTK (human)) was 52.7% and the residual activity (ROCK1 (human)) was 95.2%. The residual activity (MAPK8 (human)) was 91.1%, the residual activity (RPS6KA2 KD1 KD2 (human)) was 52.8% and the residual activity (GSK3A (human)) was 99.4%. It also gave a residual activity (CAMK4 (human)) of 96.6%, a residual activity (CAMK2B (human)) of 70% and a residual activity (CAMK1G (human)) of 97.1%. For the same compound, the residual activity (AKT1 (human)) was 107%, the residual activity (NUAK2 (human)) was 95.1% and the residual activity (NTRK3 (human)) was 2.88%. The residual activity (PRKG1 (human)) was 82.5% and 88.6%, the residual activity (WEE1 (human)) was 94.5% and the residual activity (KDR (human)) was 96.9%. It also gave a residual activity (MAPKAPK3 (human)) of 100%, a residual activity (CAMK2A (human)) of 61.4% and a residual activity (PRKACA (human)) of 106%. For the same compound, the residual activity (SLK (human)) was 23.4%, the residual activity (MAPK12 (human)) was 103% and the residual activity (TNK2 (human)) was 12.6%. It also gave a residual activity [1] of 11.4%, a residual activity (STK33 (human)) of 77.2% and a residual activity (DAPK3 (human)) of 94.4%. The residual activity (NTRK1 (human)) was 24.7%, the residual activity (ACVR1B (human)) was 105% and the residual activity (MST4 (human)) was 45.6%. The residual activity (GSK3B (human)) was 95.6%, the residual activity (PRKCB2 (human)) was 92% and the residual activity (SRPK1 (human)) was 63.8%. For the same compound, the residual activity (MARK3 (human)) was 68.9%, the residual activity (PTK2 (human)) was 33.1% and the residual activity (TSSK1B (human)) was 74.6%. It also gave a residual activity (AXL (human)) of 39.7%, a residual activity (NEK4 (human)) of 99.9% and a residual activity (PLK3 (human)) of 94.5%. For the same compound, the residual activity (CSNK2A1 (human)) was 105% and the residual activity (CDC42BPB (human)) was 101%.
